Data reported in publication PMC2114737 (The Journal of Cell Biology, 1987).

What was measured:
[1] = target: T1, N-formyl peptide receptor (Homo sapiens, UniProt P21462); experiment: Effect of guanine nucleotides on receptor affinity states of fast membranes; assay type: binding
T1 sequence (P21462 1-350): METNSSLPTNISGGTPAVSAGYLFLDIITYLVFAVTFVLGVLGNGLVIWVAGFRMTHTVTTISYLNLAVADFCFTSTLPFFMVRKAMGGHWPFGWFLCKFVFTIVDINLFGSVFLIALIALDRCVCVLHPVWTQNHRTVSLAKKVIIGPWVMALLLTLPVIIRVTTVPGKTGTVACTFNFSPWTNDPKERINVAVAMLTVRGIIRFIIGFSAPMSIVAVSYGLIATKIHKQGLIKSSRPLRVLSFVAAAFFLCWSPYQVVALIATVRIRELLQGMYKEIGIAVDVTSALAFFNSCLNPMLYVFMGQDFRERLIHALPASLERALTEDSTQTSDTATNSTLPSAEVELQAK

[2] = target: T1, N-formyl peptide receptor; assay type: binding; details: Table II; fast microsomes, unstimulated; mean, SD, n = 5

In the case of `Nc1nc2c(ncn2[C@@H]2O[C@H](COP(=O)(O)OP(=O)(O)OP(O)(O)=S)[C@@H](O)[C@H]2O)c(=O)[nH]1` [GTP-y-S], the “Effect on state C receptor” value ([1]; fast membranes from Fl-peptide-stimulated cells, GTP-γ-S, listed as GTP-gamma-S) is reported as “insensitive”.

In the case of `Nc1nc2c(ncn2[C@@H]2O[C@H](COP(=O)(O)OP(=O)(O)OP(=O)(O)O)[C@@H](O)[C@H]2O)c(=O)[nH]1` [GTP], the “Effect on state B dissociation rate / conversion to state A” value ([1]; membranes from unstimulated cells, nucleotide 10 μM where stated) is reported as “converted to the fastest ligand-dissociation state (state A)”.

With “N-formyl-Nle-Leu-Phe-Nle-Tyr- Lys-fluorescein [Fl-peptide]” the “Percentage of receptor associated with State B” value [2] was 47%.
